Some results are limits rather than exact numbers.

Common to all, as to format: in vivo
Experiment [1] concerns Southern Armyworm (Spodoptera eridania, 2nd instar larvae). The experiment in a line: Southern armyworm, sprayed lima bean plants. The following applies: 96 h, test concentration of 500 ppm, 4 days after treatment, in comparison with untreated controls. The procedure:
The active compounds were formulated in cyclohexanone as a 10, 0000 ppm solution supplied in 1.3 ml ABgene® tubes. These tubes were inserted into an automated electrostatic sprayer equipped with an atomizing nozzle and they served as stock solutions for which lower dilutions were made in 50% acetone: 50% water (v/v). A nonionic surfactant (Kinetic®) was included in the solution at a volume of 0.01% (v/v). Lima bean plants (variety Sieva) were grown 2 plants to a pot and selected for treatment at the 1st true leaf stage. Test solutions were sprayed onto the foliage by an automated electrostatic plant sprayer equipped with an atomizing spray nozzle. The plants were dried in the sprayer fume hood and then removed from the sprayer. Each pot was placed into perforated plastic bags with a zip closure. Ten to 11 armyworm larvae were placed into the bag and the bags zipped closed. Test plants were maintained in a growth room at 25°C and 20-40% relative humidity for 4 days, avoiding direct exposure to fluorescent light (24 hour photoperiod) to prevent trapping of heat inside the bags. Mortality and reduced feeding were assessed 4 days after treatment, compared to untreated control plants.

In experiment [2] the test system is Green Peach Aphid (Myzus persicae, mixed life stages). The experiment in a line: Green peach aphid, sprayed infested bell pepper plants. Particulars: 120 h, test concentration of 1415 ppm, after 5 days, relative to mortality on untreated control plants. From the text: The active compounds were formulated in cyclohexanone as a 10,000 ppm solution supplied in tubes. The tubes were inserted into an automated electrostatic sprayer equipped with an atomizing nozzle and they served as stock solutions for which lower dilutions were made in 50% acetone:50% water (v/v). A nonionic surfactant (Kinetic®) was included in the solution at a volume of 0.01 % (v/v). Bell pepper plants at the first true-leaf stage were infested prior to treatment by placing heavily infested leaves from the main colony on top of the treatment plants. Aphids were allowed to transfer overnight to accomplish an infestation of 30-50 aphids per plant and the host leaves were removed. The infested plants were then sprayed by an automated electrostatic plant sprayer equipped with an atomizing spray nozzle. The plants were dried in the sprayer fume hood, removed, and then maintained in a growth room under fluorescent lighting in a 24-hr photoperiod at about 25°C and about 20-40% relative humidity. Aphid mortality on the treated plants, relative to mortality on untreated control plants, was determined after 5 days.

Experiment [3] deals with vetch aphid (Megoura viciae). The experiment is described as follows: Vetch aphid control, broad bean leaf disks, contact or systemic. Particulars: foliar, 120 h, test concentration of 1415 ppm, aphid mortality visually assessed after 5 days.
Experiment [4] has as its system Rice brown plant hopper (Nilaparvata lugens). The experiment in a line: Rice brown plant hopper, sprayed potted rice seedlings. Particulars: test concentration of 500 ppm, after 72 hours, in comparison with untreated controls. The protocol:
Rice seedlings were cleaned and washed 24 hours before spraying. The active compounds were formulated in 50:50 acetone:water (vol:vol) and 0.1 % vol/vol surfactant (EL 620) was added. Potted rice seedlings were sprayed with 5 ml test solution, air dried, placed in cages and inoculated with 10 adults. Treated rice plants were kept at about 28-29°C and relative humidity of about 50-60%. Percent mortality was recorded after 72 hours.

Experiment [5] has as its system tobacco budworm (Heliothis virescens). The experiment is described as follows: Tobacco budworm control, insect diet in 96-well microtiter plates. The following applies: 120 h. The protocol: For evaluating control of tobacco budworm (Heliothis virescens) the test unit consists of 96-well-microtiter plates containing an insect diet and 15-25 H. virescens eggs. The compounds were formulated using a solution containing 75% v/v water and 25% v/v DMSO. Different concentrations of formulated compounds were sprayed onto the insect diet at 10 µl, using a custom built micro atomizer, at two replications. After application, microtiter plates were incubated at about 28 ± 1°C and about 80 ± 5 % relative humidity for 5 days. Egg and larval mortality was then visually assessed.

Experiment [6] deals with Orchid thrips (Dichromothrips corbetti). The experiment in a line: Orchid thrips, floral-immersion technique. Particulars: 96 h, test concentration of 100 ppm, after 4 days, in comparison with untreated controls. The procedure: Dichromothrips corbetti adults used for bioassay were obtained from a colony maintained continuously under laboratory conditions. For testing purposes, the test compound was diluted to a concentration of 300 ppm (wt compound: vol diluent) in a 1:1 mixture of acetone:water (vol:vol), plus 0.01 % vol/vol Kinetic® surfactant. Thrips potency of each compound was evaluated by using a floral-immersion technique. Plastic petri dishes were used as test arenas. All petals of individual, intact orchid flowers were dipped into treatment solution and allowed to dry. Treated flowers were placed into individual petri dishes along with 10 - 15 adult thrips. The petri dishes were then covered with lids. All test arenas were held under continuous light and a temperature of about 28°C for duration of the assay. After 4 days, the numbers of live thrips were counted on each flower, and along inner walls of each petri dish. The level of thrips mortality was extrapolated from pre-treatment thrips numbers.

Experiment [7] deals with Mediterranean fruitfly (Ceratitis capitata). The experiment is described as follows: Mediterranean fruitfly control, insect diet in microtiter plates. The following applies: 120 h, test concentration of 1415 ppm, egg and larval mortality visually assessed after 5 days. The procedure: For evaluating control of Mediterranean fruitfly (Ceratitis capitata) the test unit consisted of microtiter plates containing an insect diet and 50-80 C. capitata eggs. The compounds were formulated using a solution containing 75% v/v water and 25% v/v DMSO. Different concentrations of formulated compounds were sprayed onto the insect diet at 5 µl, using a custom built micro atomizer, at two replications. After application, microtiter plates were incubated at about 28 ± 1°C and about 80 ± 5 % relative humidity for 5 days. Egg and larval mortality was then visually assessed.

Experiment [8] deals with boll weevil (Anthonomus grandis). The experiment in a line: Boll weevil control, insect diet in 24-well microtiter plates. The following applies: 120 h, test concentration of 1415 ppm, egg and larval mortality visually assessed after 5 days. The protocol: For evaluating control of boll weevil (Anthonomus grandis) the test unit consists of 24-well-microtiter plates containing an insect diet and 20-30 A. grandis eggs. The compounds were formulated using a solution containing 75% v/v water and 25% v/v DMSO. Different concentrations of formulated compounds were sprayed onto the insect diet at 20 µl, using a custom built micro atomizer, at two replications. After application, microtiter plates were incubated at about 23 ± 1°C and about 50 ± 5 % relative humidity for 5 days. Egg and larval mortality was then visually assessed.

A word on the mortality: it is the share of the test organisms that died. A low value points to more survivors. Compound `CC(C)S(=NC(=O)c1cccc(-c2c([O-])[n+](Cc3ccc(Cl)nc3)c3ccccn3c2=O)c1)C(C)C` [Compound C-5] displayed a mortality at 500 ppm in experiment [1] of at least 75%. In experiment [2], this compound came in with a mortality at 1415 ppm of at least 75%.

In turn, `CCS(CC)=NC(=O)c1cccc(-c2c([O-])[n+](Cc3ccc(Cl)nc3)c3ccccn3c2=O)c1` [Compound C-4, 1-[(6-chloro-3-pyridyl)methyl]-3-[3-[(diethyl-λ4-sulfanylidene)carbamoyl]phenyl]-4-oxo-pyrido[1,2-a]pyrimidin-1-ium-2-olate] showed a mortality at 500 ppm in experiment [1] of at least 75%.

In turn, `CCS(CC)=NC(=O)c1cccc(-c2cc(-c3c([O-])[n+](Cc4cnc(Cl)s4)c4c(C)cccn4c3=O)ccc2Cl)c1` [Compound C-10] returned a mortality at 1415 ppm in experiment [2] of at least 75%.

The compound `CCS(=NC(=O)c1ccc(-c2cccc(-c3c([O-])[n+](Cc4ccc(Cl)nc4)c4ccccn4c3=O)c2)cc1)C1CC1` (centres unmarked) [Compound C-7] displayed a mortality at 500 ppm in experiment [1] of at least 75%. Further, the mortality at 1415 ppm in experiment [2] and in experiment [3] was at least 75% each time.

With `CCS(CC)=NC(=O)c1cccc(-c2cccc(-c3c([O-])[n+](Cc4ccc(Cl)nc4)c4ccccn4c3=O)c2)c1` [Compound C-11], the mortality at 1415 ppm in experiment [2] was at least 75%.

Regarding `CCS(CC)=NC(=O)c1cccc(-c2cc(-c3c([O-])[n+](Cc4ccc(Cl)nc4)c4ccccn4c3=O)ccc2OC)c1` [Compound C-9], in experiment [2], the mortality at 1415 ppm is at least 75%.

In experiment [2], `CC(C)S(=NC(=O)c1cccc(-c2cccc(-c3c([O-])[n+](Cc4ccc(Cl)nc4)c4ccccn4c3=O)c2)c1)C(C)C` [Compound C-13] registered a mortality at 1415 ppm of at least 75%. In experiment [4], this compound had a mortality at 500 ppm of at least 75%.

The compound `CCS(CC)=NC(=O)c1ccc(-c2cccc(-c3c([O-])[n+](Cc4cnc(Cl)s4)c4c(C)cccn4c3=O)c2)cc1` [Compound C-1] gave a mortality at 500 ppm in experiment [1] of at least 75%. The mortality at 1415 ppm in experiment [5], in experiment [7], in experiment [8] and in experiment [2] was at least 75% each time. In experiment [6], this compound came in with a mortality at 100 ppm of at least 75%.

Turning to `CC(C)S(=NC(=O)c1ccc(-c2cccc(-c3c([O-])[n+](Cc4ccc(Cl)nc4)c4ccccn4c3=O)c2)cc1)C(C)C` [Compound C-8], in experiment [1], the mortality at 500 ppm was at least 75%. Further, the mortality at 1415 ppm in experiment [2] was at least 75%.

As to `CCS(=NC(=O)c1cccc(-c2cccc(-c3c([O-])[n+](Cc4ccc(Cl)nc4)c4ccccn4c3=O)c2)c1)C1CC1` (centres unmarked) [Compound C-12], the mortality at 1415 ppm in experiment [2] is at least 75%.

These data come from patent EP2684879A1, “Substituted mesoionic compounds for combating animal pests” (priority 2012, dated 2014).
